According to ChEMBL document CHEMBL3098015, “Synthesis and evaluation of 1-cyclopropyl-6-fluoro-1,4-dihydro-4-oxo-7-(4-(2-(4-substitutedpiperazin-1-yl)acetyl)piperazin-1-yl)quinoline-3-carboxylic acid derivatives as anti-tubercular and antibacterial agents” (Eur J Med Chem, 2014):
Converted amounts (≈) assume the structure as drawn.

Key:
Escherichia coli [1] = test: Bactericidal activity against Escherichia coli ATCC 25922 assessed as 3 log reduction in inoculum size after 24 hrs by broth microdilution method relative to control; format: functional; conditions: ATCC 25922, 24 h
Escherichia coli [2] = test: Antimicrobial activity against Escherichia coli ATCC 25922 after 24 hrs by broth microdilution method; format: functional; conditions: ATCC 25922, 24 h
[3] = test system: Mycobacterium tuberculosis; test: Antimicrobial activity against Mycobacterium tuberculosis H37Rv ATCC 27294 after 3 weeks by microbroth dilution method; format: functional; conditions: H37Rv ATCC 27294, 504 h
Staphylococcus aureus [4] = test: Bactericidal activity against Staphylococcus aureus ATCC 29213 assessed as 3 log reduction in inoculum size after 24 hrs by broth microdilution method relative to control; format: functional; conditions: ATCC 29213, 24 h
Staphylococcus aureus [5] = test: Antimicrobial activity against Staphylococcus aureus ATCC 29213 after 24 hrs by broth microdilution method; format: functional; conditions: ATCC 29213, 24 h
[6] = Selectivity index, ratio of IC50 for mouse RAW264.7 cells to MIC for Mycobacterium tuberculosis H37Rv ATCC 27294; format: toxicity; conditions: read-out: Selectivity Index
RAW264.7 = test: Cytotoxicity against mouse RAW264.7 cells after 72 hrs by MTT assay; format: cell-based; conditions: RAW264.7, 72 h
[7] = Cytotoxicity against mouse RAW264.7 cells at 50 uM after 72 hrs by MTT assay; format: cell-based; conditions: read-out: INH
[8] = Inhibition of DNA gyrase (unknown origin) using relaxed pBR322 as substrate after 30 mins by agarose gel electrophoresis

| SMILES | MBC (Escherichia coli [1]) | MIC99 (Escherichia coli [2]) | MIC99 [3] | MBC (Staphylococcus aureus [4]) | MIC99 (Staphylococcus aureus [5]) | selectivity ratio [6] | IC50 (RAW264.7) | cytotoxicity at 72 h, 50 µM [7] | IC50 [8] |
| --- | --- | --- | --- | --- | --- | --- | --- | --- | --- |
| O=C(O)c1cn(C2CC2)c2cc(N3CCN(C(=O)CN4CCN(c5ccccc5)CC4)CC3)c(F)cc2c1=O | 7.51 µM (≈ 4.01 µg/mL) | 1.87 µM (≈ 0.998 µg/mL) | > 120 µM | 7.51 µM (≈ 4.01 µg/mL) | 0.93 µM (≈ 0.496 µg/mL) | – | – | – | – |
| COc1ccc(N2CCN(CC(=O)N3CCN(c4cc5c(cc4F)c(=O)c(C(=O)O)cn5C4CC4)CC3)CC2)cc1OC | – | 6.75 µM (≈ 4.01 µg/mL) | > 108 µM | – | 1.68 µM (≈ 0.997 µg/mL) | – | – | – | – |
| N#Cc1ccccc1N1CCN(CC(=O)N2CCN(c3cc4c(cc3F)c(=O)c(C(=O)O)cn4C3CC3)CC2)CC1 | – | 3.58 µM (≈ 2 µg/mL) | > 115 µM | – | 0.89 µM (≈ 0.497 µg/mL) | – | – | – | – |
| O=C(O)c1cn(C2CC2)c2cc(N3CCN(C(=O)CN4CCN(c5ccc(F)c(F)c5)CC4)CC3)c(F)cc2c1=O | – | > 225 µM | > 113 µM | – | > 225 µM | – | – | – | – |
| Cc1cccc(N2CCN(CC(=O)N3CCN(c4cc5c(cc4F)c(=O)c(C(=O)O)cn5C4CC4)CC3)CC2)c1 | – | 7.32 µM (≈ 4.01 µg/mL) | 29.3 µM (≈ 16 µg/mL) | – | 1.83 µM (≈ 1 µg/mL) | 5.26 | 154 µM | 16.2% | – |
| O=C(O)c1cn(C2CC2)c2cc(N3CCN(C(=O)CN4CCN(c5ccc([N+](=O)[O-])cc5)CC4)CC3)c(F)cc2c1=O | – | 13.8 µM (≈ 8.01 µg/mL) | > 111 µM | – | 6.92 µM (≈ 4 µg/mL) | – | – | – | – |
| O=C(O)c1cn(C2CC2)c2cc(N3CCN(C(=O)CN4CCN(C(c5ccc(F)cc5)c5ccc(F)cc5)CC4)CC3)c(F)cc2c1=O | – | > 24.3 µM | > 97.2 µM | – | 1.51 µM (≈ 0.996 µg/mL) | – | – | – | – |
| CN1CCN(CC(=O)N2CCN(c3cc4c(cc3F)c(=O)c(C(=O)O)cn4C3CC3)CC2)CC1 | – | 34 µM (≈ 16 µg/mL) | 136 µM (≈ 64.2 µg/mL) | – | 34 µM (≈ 16 µg/mL) | – | – | – | – |
| N#Cc1ccc(N2CCN(CC(=O)N3CCN(c4cc5c(cc4F)c(=O)c(C(=O)O)cn5C4CC4)CC3)CC2)cc1 | – | 7.17 µM (≈ 4.01 µg/mL) | > 115 µM | – | 7.17 µM (≈ 4.01 µg/mL) | – | – | – | – |
| O=C(O)c1cn(C2CC2)c2cc(N3CCN(C(=O)CN4CCN(c5ccc(Cl)cc5)CC4)CC3)c(F)cc2c1=O | – | 7.06 µM (≈ 4.01 µg/mL) | 113 µM (≈ 64.2 µg/mL) | – | 1.76 µM (≈ 1 µg/mL) | – | – | – | – |
| O=C(O)c1cn(C2CC2)c2cc(N3CCN(C(=O)CN4CCN(C(c5ccccc5)c5ccccc5)CC4)CC3)c(F)cc2c1=O | – | 12.8 µM (≈ 8.01 µg/mL) | 25.7 µM (≈ 16 µg/mL) | – | 0.8 µM (≈ 0.499 µg/mL) | 3.75 | 96.6 µM | 25.9% | – |
| CC(=O)N1CCN(CC(=O)N2CCN(c3cc4c(cc3F)c(=O)c(C(=O)O)cn4C3CC3)CC2)CC1 | – | 16.1 µM (≈ 8.02 µg/mL) | 16.1 µM (≈ 8.02 µg/mL) | – | 4.01 µM (≈ 2 µg/mL) | 9.59 | 154 µM | 16.2% | – |
| CO[C@H]1/C=C/O[C@@]2(C)Oc3c(C)c(O)c4c(O)c(c(/C=N/N5CCN(C)CC5)c(O)c4c3C2=O)NC(=O)/C(C)=C\C=C\[C@H](C)[C@H](O)[C@@H](C)[C@@H](O)[C@@H](C)[C@H](OC(C)=O)[C@@H]1C [RIFAMPIN] | – | – | 0.14 µM (≈ 0.115 µg/mL) | – | – | – | – | – | – |
| O=C(O)c1cn(C2CC2)c2cc(N3CCN(C(=O)CN4CCN(c5ncccn5)CC4)CC3)c(F)cc2c1=O | – | 3.74 µM (≈ 2 µg/mL) | 59.9 µM (≈ 32.1 µg/mL) | – | 1.87 µM (≈ 1 µg/mL) | 3.79 | 227 µM | 11% | – |
| O=C(O)c1cn(C2CC2)c2cc(N3CCN(C(=O)CN4CCN(c5ccccc5Cl)CC4)CC3)c(F)cc2c1=O | 7.06 µM (≈ 4.01 µg/mL) | 0.88 µM (≈ 0.5 µg/mL) | 28.2 µM (≈ 16 µg/mL) | 0.88 µM (≈ 0.5 µg/mL) | 0.44 µM (≈ 0.25 µg/mL) | 5.92 | 167 µM | 14.9% | – |
| O=C(O)c1cn(C2CC2)c2cc(N3CCN(C(=O)CN4CCN(c5cccc(C(F)(F)F)c5)CC4)CC3)c(F)cc2c1=O | – | 6.66 µM (≈ 4.01 µg/mL) | > 107 µM | – | 0.83 µM (≈ 0.499 µg/mL) | – | – | – | – |
| O=C(O)c1cn(C2CC2)c2cc(N3CCNCC3)c(F)cc2c1=O [CIPROFLOXACIN] | – | 0.021 µM (≈ 0.00696 µg/mL) | – | – | 0.37 µM (≈ 0.123 µg/mL) | – | – | – | – |
| O=C(O)c1cn(C2CC2)c2cc(N3CCN(C(=O)CN4CCN(Cc5ccccc5)CC4)CC3)c(F)cc2c1=O | – | 1.83 µM (≈ 1 µg/mL) | 7.32 µM (≈ 4.01 µg/mL) | – | 1.83 µM (≈ 1 µg/mL) | 22 | 161 µM | 15.5% | 7 µM |
| O=C(O)c1cn(C2CC2)c2cc(N3CCN(C(=O)CN4CCN(c5cccc(O)c5)CC4)CC3)c(F)cc2c1=O | – | 3.64 µM (≈ 2 µg/mL) | > 117 µM | – | 1.82 µM (≈ 1 µg/mL) | – | – | – | – |
| COc1cccc(N2CCN(CC(=O)N3CCN(c4cc5c(cc4F)c(=O)c(C(=O)O)cn5C4CC4)CC3)CC2)c1 | – | 3.55 µM (≈ 2 µg/mL) | > 114 µM | – | 0.88 µM (≈ 0.496 µg/mL) | – | – | – | – |
| CC(c1ccccc1)N1CCN(CC(=O)N2CCN(c3cc4c(cc3F)c(=O)c(C(=O)O)cn4C3CC3)CC2)CC1 (stereo not drawn) | – | 3.56 µM (≈ 2 µg/mL) | 28.6 µM (≈ 16 µg/mL) | – | 1.78 µM (≈ 1 µg/mL) | 5.17 | 148 µM | 16.9% | – |
| O=C(O)c1cn(C2CC2)c2cc(N3CCN(C(=O)CN4CCN(c5ccccn5)CC4)CC3)c(F)cc2c1=O | – | 3.75 µM (≈ 2 µg/mL) | > 120 µM | – | 1.87 µM (≈ 1 µg/mL) | – | – | – | – |
| CCN1CCN(CC(=O)N2CCN(c3cc4c(cc3F)c(=O)c(C(=O)O)cn4C3CC3)CC2)CC1 | – | 16.5 µM (≈ 8.02 µg/mL) | 33 µM (≈ 16 µg/mL) | – | 16.5 µM (≈ 8.02 µg/mL) | 5.68 | 188 µM | 13.3% | – |
| CN(C)CCN1CCN(CC(=O)N2CCN(c3cc4c(cc3F)c(=O)c(C(=O)O)cn4C3CC3)CC2)CC1 | – | 7.58 µM (≈ 4.01 µg/mL) | 121 µM (≈ 64.2 µg/mL) | – | 7.58 µM (≈ 4.01 µg/mL) | – | – | – | – |
